Patent publication US10745401B2, “Condensed lactam derivative” (Sumitomo Dainippon Pharma Co., Ltd., priority 2018, dated 2020)

Tests used:
human 5-HT2A receptor [1] = molecular target: T1, human 5-HT2A receptor (Homo sapiens (Human), UniProt P28223); test: Test 1: binding activity for human 5-HT2A receptor ([3H]Ketanserin, CHO cell membrane fraction)
Experimental: Test 1: Evaluation of Binding Activity for Human 5-HT1A Receptor, Human 5-HT2A Receptor, and Human D2 Receptor
Binding affinity of the present compound for human 5-HT1A receptor, human 5-HT2A receptor, and human D2 receptor was measured by the following procedures.
Each mixture was incubated at room temperature for 60 minutes. Then, the mixture was added quickly on a glassfiber filter plate (Multiscreen FB, Millipore, Inc.) coated with 0.3% aqueous polyethylenimine, and vacuum-filtered. Radioactivity remaining on the filter was measured with a liquid scintillation counter (PerkinElmer, Inc.). Binding inhibition rate was calculated from the following formula.
Ki of each compound was calculated from the following formula. Binding inhibition constant (Ki)=IC50/(1+S/Kd) wherein S is concentration of ligand; Kd is a binding dissociation constant of ligand to membrane, which is calculated from a saturated binding experiment conducted with the same cell membrane. A small Ki value means strong binding ability to a receptor.

human 5-HT1A receptor [2] = molecular target: T2, human 5-HT1A receptor (Homo sapiens (Human), UniProt P08908); test: Test 2: agonist activity for human 5-HT1A receptor ([35S]GTPγS binding); type: biochemical; settings: for Emax at 10 µM: agonist activity in the presence of 10 μM of compound, relative to 100 μmol/L 5-HT; for EC50: [35S]GTPγS binding, concentration at which half the activity of Emax was obtained
T2 sequence (P08908 whole entry): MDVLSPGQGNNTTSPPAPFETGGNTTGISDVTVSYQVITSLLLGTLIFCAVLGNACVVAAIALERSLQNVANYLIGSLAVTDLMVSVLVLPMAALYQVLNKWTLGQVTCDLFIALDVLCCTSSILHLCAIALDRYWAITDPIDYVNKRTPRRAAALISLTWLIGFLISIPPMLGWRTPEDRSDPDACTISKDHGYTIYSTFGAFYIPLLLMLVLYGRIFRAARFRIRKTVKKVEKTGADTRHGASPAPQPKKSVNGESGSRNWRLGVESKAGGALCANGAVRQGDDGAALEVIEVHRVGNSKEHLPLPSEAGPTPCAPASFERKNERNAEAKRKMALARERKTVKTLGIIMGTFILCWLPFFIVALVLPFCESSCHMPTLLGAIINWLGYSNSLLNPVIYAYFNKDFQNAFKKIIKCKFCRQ
Outline: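 [35S]GTPγS binding read-out: after 60 min at room temperature with test compound in GDP buffer, human 5-HT1A receptor CHO membranes were vacuum-filtered and retained radioactivity scintillation-counted. Agonist activity calculated by formula.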

human 5-HT2A receptor [3] = molecular target: T1, human 5-HT2A receptor; test: Test 3: antagonist activity for human 5-HT2A receptor (aequorin luminescence, CHO-K1 cells); type: cell-based; settings: for IC50: CHO-K1 cells, 1 nmol/L 5-HT
Experimental: Test 3: Evaluation of Antagonist Activity for Human 5-HT2A Receptor
Aequorin, Gα16 protein, and each receptor were transiently expressed in CHO-K1 cells (Chinese hamster ovary). […] Each compound dissolved in DMSO was added thereto, and changes in luminescence were measured by FDSS/μCELL functional drug screening system (Hamamatsu Photonics K.K.). Antagonist activity was calculated from the following formula. Antagonist activity (%)=100×{(Luminescence of well in the presence of 1 nmol/L 5-HT−Luminescence of well containing solvent)−(Luminescence of well in the presence of test compound and 1 nmol/L 5-HT−Luminescence of well containing solvent)}/(Luminescence of well in the presence of 1 nmol/L 5-HT−Luminescence of well containing solvent)

[4] = Test 4: metabolic stability test in human hepatic microsome; type: in vitro ADME; settings: 0.1 mg/mL microsome, 0.1 μmol/L compound, 37° C., 30 minutes
Outline: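 LC-MS quantified remaining parent after 30 min, 37° C, in pH 7.4 25 mmol/L phosphate containing 0.1 mg/mL human hepatic microsomes, 3.2 mmol/L NADPH and 0.1 μmol/L test compound. Value given as −LN(residual ratio)/30/0.1, mL/min/mg protein.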

hERG channel = hERG channel (Homo sapiens (Human), UniProt Q12809); test: Test 6-1: inhibitory activity for hERG channel (auto patch clamp, Qpatch); type: cell-based; settings: whole cell auto patch clamp, hERG-CHO cells; read-out: hERG inhibition IC50
Chain of hERG channel (Q12809 whole entry): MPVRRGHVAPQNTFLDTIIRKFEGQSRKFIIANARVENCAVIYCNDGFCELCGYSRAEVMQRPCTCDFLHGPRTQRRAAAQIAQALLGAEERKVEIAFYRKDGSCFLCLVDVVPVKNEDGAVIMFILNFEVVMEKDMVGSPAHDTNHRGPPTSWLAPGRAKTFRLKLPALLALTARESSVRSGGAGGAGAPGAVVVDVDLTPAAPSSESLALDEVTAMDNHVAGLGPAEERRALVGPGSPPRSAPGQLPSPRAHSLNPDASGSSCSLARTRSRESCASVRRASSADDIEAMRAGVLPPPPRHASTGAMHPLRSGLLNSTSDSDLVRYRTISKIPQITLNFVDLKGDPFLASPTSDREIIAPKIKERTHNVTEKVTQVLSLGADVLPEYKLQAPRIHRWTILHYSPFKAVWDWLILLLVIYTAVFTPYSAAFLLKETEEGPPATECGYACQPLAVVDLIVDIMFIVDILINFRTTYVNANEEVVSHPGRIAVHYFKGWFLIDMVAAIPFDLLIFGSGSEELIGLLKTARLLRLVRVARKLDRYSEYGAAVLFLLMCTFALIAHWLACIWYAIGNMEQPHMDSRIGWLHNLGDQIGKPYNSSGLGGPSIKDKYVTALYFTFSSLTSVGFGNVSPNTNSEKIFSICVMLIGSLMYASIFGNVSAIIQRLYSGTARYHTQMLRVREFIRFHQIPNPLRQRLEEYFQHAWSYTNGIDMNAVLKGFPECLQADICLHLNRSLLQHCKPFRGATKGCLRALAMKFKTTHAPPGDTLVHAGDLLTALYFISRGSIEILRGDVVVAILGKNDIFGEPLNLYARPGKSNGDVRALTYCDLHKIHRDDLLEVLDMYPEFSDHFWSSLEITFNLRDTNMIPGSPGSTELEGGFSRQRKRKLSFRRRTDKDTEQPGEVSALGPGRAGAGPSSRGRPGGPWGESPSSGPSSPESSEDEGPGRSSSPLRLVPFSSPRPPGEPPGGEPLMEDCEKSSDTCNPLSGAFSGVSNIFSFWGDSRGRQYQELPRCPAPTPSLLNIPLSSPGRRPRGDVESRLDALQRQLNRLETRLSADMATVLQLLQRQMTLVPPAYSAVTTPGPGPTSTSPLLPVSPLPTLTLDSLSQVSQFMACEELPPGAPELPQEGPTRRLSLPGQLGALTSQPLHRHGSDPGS
Outline: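 Whole-cell patch clamp on an automated system using CHO cells stably expressing human hERG (IKr); 15 s pulse interval. Four increasing compound concentrations applied cumulatively; mean peak tail current from last 3 stimulations per concentration used. IC50 from inhibition versus pre-compound current, fitted by Hill equation.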

human 5-HT1A receptor [5] = molecular target: T2, human 5-HT1A receptor; test: Test 1: binding activity for human 5-HT1A receptor ([3H]8-OH-DPAT, CHO cell membrane fraction)
Outline: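 Membranes incubated with [3H]8-OH-DPAT and compound for 60 min at room temperature, then filtered on polyethylenimine-coated glass-fibre plates and counted by liquid scintillation. IC50 from Hill analysis; Ki = IC50/(1+S/Kd), Kd from saturation binding on the same membranes.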

human D2 receptor = human D2 receptor (Homo sapiens (Human), UniProt P14416); test: Test 1: binding activity for human D2 receptor ([3H]Spiperone, CHO cell membrane fraction); settings: for Ki: human D2 receptor, [3H]Spiperone; for D2 Ki/5-HT1A Ki / D2 Ki/5-HT2A Ki: selectivity ratio
Chain of human D2 receptor (P14416 whole entry): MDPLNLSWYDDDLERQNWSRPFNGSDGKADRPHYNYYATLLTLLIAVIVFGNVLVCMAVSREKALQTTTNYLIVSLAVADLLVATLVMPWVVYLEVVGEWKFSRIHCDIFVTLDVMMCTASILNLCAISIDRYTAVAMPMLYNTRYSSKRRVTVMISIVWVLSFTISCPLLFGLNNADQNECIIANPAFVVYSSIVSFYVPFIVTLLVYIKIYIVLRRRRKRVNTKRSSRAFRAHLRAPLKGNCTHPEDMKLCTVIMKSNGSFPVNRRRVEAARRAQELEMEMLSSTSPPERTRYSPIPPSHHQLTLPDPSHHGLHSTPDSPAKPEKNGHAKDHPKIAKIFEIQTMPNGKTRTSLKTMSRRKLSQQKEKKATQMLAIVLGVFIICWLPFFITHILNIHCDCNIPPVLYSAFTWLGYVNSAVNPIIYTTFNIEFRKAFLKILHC
Outline: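 Compound displacement of [3H]ketanserin at 5-HT2A or [3H]spiperone at D2 was measured in CHO membrane fractions after 60 min at room temperature, with filtration and scintillation counting. IC50 was converted to Ki by Cheng–Prusoff using ligand concentration and Kd from saturation binding.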

T1 sequence (P28223 whole entry): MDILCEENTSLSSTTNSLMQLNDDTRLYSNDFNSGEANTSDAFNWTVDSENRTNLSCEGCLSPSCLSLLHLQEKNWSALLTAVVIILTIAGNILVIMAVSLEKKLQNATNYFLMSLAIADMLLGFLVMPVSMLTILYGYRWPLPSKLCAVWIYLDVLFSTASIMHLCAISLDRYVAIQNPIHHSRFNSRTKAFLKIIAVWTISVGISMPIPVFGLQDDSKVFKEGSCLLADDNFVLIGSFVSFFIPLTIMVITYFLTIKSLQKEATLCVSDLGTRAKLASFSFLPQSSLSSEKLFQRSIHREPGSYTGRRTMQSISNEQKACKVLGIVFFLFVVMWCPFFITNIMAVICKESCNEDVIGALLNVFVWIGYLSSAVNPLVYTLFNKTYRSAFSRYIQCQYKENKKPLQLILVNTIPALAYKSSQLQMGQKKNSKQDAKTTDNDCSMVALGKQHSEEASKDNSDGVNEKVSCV

SMILES | Ki (human 5-HT2A receptor [1]) | Emax at 10 µM (human 5-HT1A receptor [2]) | IC50 (human 5-HT2A receptor [3]) | Metabolic stability in human hepatic microsome [4] | IC50 (hERG channel) | Ki (human 5-HT1A receptor [5]) | EC50 (human 5-HT1A receptor [2]) | Ki (human D2 receptor) | IC50 (human 5-HT2A receptor [3]; aequorin luminescence) | D2 Ki/5-HT1A Ki (human D2 receptor) | D2 Ki/5-HT2A Ki (human D2 receptor) | activity at 10 µM (human 5-HT2A receptor [3]; CHO-K1)
Cc1cc2c(C3CCN(CCN4CCc5cccnc5C4=O)CC3)noc2cc1F [Example 6] | 68 nM | 31% | 651 nM | 0.061 mL/min/mg protein | 2200 nM | – | – | – | – | – | – | –
O=C1c2ncccc2CCN1CCN1CCN(c2nsc3ccccc23)CC1 [Example 7] | 2.63 nM | 55% | 7.83 nM | 0.041 mL/min/mg protein | 5200 nM | – | – | – | – | – | – | –
O=c1c2cccnc2ccn1CCN1CCN(c2nsc3ccccc23)CC1 [Example 10] | 0.49 nM | – | 0.71 nM | – | – | 20 nM | 119 nM | – | – | – | – | –
O=C1c2ncccc2CCN1CCN1CCC(c2noc3ccccc23)CC1 [Example 22, 7-{2-[4-(1,2-Benzoisoxazol-3-yl)piperidin-1-yl]ethyl}-6,7-dihydro-1,7-naphthyridin-8(5H)-one] | 4.4 nM | 52% | 94 nM | 0.039 mL/min/mg protein | 1900 nM | – | – | 2600 nM | – | – | – | –
O=C1c2ncccc2CCC1CCN1CCN(c2noc3ccccc23)CC1 (stereo not shown) [Example 23] | 6 nM | 55% | 7.29 nM | 0.109 mL/min/mg protein | 1900 nM | – | – | – | – | – | – | –
O=C1c2ncccc2CCC1CCN1CCN(c2nsc3ccccc23)CC1 (stereo not shown) [Example 25] | 3.01 nM | 57% | 5.54 nM | 0.398 mL/min/mg protein | 400 nM | – | – | – | – | – | – | –
O=C1c2ncccc2CCN1CCN1CCC(c2nsc3ccccc23)CC1 [Example 26] | 1.92 nM | 50% | 4.49 nM | <0.01 mL/min/mg protein | 800 nM | – | – | – | – | – | – | –
Cn1ncc2c1CCCC(CCN1CCC(c3noc4ccccc34)CC1)C2=O (stereo not shown) [Example 30] | 0.76 nM | 42% | 43 nM | 0.065 mL/min/mg protein | 900 nM | – | – | – | – | – | – | –
Cn1ncc2c1CCCC(CCN1CCN(c3nsc4ccccc34)CC1)C2=O (stereo not shown) [Example 31] | 0.47 nM | 40% | 2.71 nM | 0.305 mL/min/mg protein | 1200 nM | – | – | – | – | – | – | –
Cc1noc2c1C(=O)N(CCN1CCN(c3nsc4ccccc34)CC1)CC2 [Example 34] | 0.7 nM | 54% | 8 nM | 0.124 mL/min/mg protein | 2500 nM | – | – | – | – | – | – | –
Cc1noc2c1C(=O)N(CCN1CCN(c3nsc4ccccc34)CC1)CCC2 [Example 40] | 4.86 nM | 60% | 8.7 nM | 0.278 mL/min/mg protein | 1800 nM | – | – | – | – | – | – | –
Cc1nc2c(o1)C(=O)N(CCN1CCN(c3nsc4ccccc34)CC1)CC2 [Example 45] | 3.1 nM | 65% | 27 nM | 0.032 mL/min/mg protein | 7000 nM | – | – | – | – | – | – | –
Cc1nc2c(o1)C(=O)N(CCN1CCN(c3nsc4ccccc34)CC1)CCC2 [Example 46] | 2.8 nM | 58% | 52 nM | 0.018 mL/min/mg protein | 3700 nM | – | – | – | – | – | – | –
Cn1cc2c(n1)C(=O)N(CCN1CCN(c3nsc4ccccc34)CC1)CCC2 [Example 49] | 1.8 nM | 64% | 7.02 nM | 0.063 mL/min/mg protein | 5900 nM | – | – | – | – | – | – | –
Cc1nc2c(o1)CCCN(CCN1CCN(c3nsc4ccccc34)CC1)C2=O [Example 52] | 4.7 nM | 77% | 12 nM | 0.043 mL/min/mg protein | 4900 nM | – | – | – | – | – | – | –
O=C1c2cncnc2CCN1CCN1CCC(c2noc3ccccc23)CC1 [Example 57] | 7.6 nM | 61% | 76.7 nM | 0.013 mL/min/mg protein | 2200 nM | – | – | – | – | – | – | –
Cn1cc2c(n1)CCN(CCN1CCN(c3noc4ccccc34)CC1)C2=O [Example 81] | 10 nM | 60% | 83 nM | <0.01 mL/min/mg protein | > 10000 nM | – | – | – | – | – | – | –
CC1CN(CCN2CCC(c3noc4ccccc34)CC2)C(=O)c2ccn(C)c21 (stereo not shown) [Example 82] | 0.87 nM | 61% | 46 nM | 0.072 mL/min/mg protein | 1900 nM | – | – | – | – | – | – | –
CC1CN(CCN2CCN(c3noc4ccccc34)CC2)C(=O)c2ccn(C)c21 (stereo not shown) [Example 83] | 4 nM | 61% | 49 nM | 0.135 mL/min/mg protein | 8000 nM | – | – | – | – | – | – | –
O=C1c2cnc(C(F)(F)F)cc2CCN1CCN1CCN(c2nsc3ccccc23)CC1 [Example 110, 2-{2-[4-(1,2-Benzoisothiazol-3-yl)piperazin-1-yl]ethyl}-6-(trifluoromethyl)-3,4-dihydro-2,7-naphthyridin-1(2H)-one] | 2.6 nM | 65% | 42.4 nM | 0.353 mL/min/mg protein | 2400 nM | – | – | – | – | – | – | –
O=c1c2cccnc2ccn1CCN1CCN(c2noc3ccccc23)CC1 [Example 115] | 1.07 nM | 37% | – | <0.05 mL/min/mg protein | 5000 nM | – | – | > 10000 nM | 4.28 nM | – | – | –
Cc1cccc2c(C3CCN(CCN4CCc5cccnc5C4=O)CC3)noc12 [Example 120] | 91 nM | – | – | – | – | 340 nM | 630 nM | > 10000 nM | 912 nM | – | – | –
O=C1c2ncccc2CCN1CCN1CCC(c2noc3c(F)cccc23)CC1 [Example 140] | 118 nM | 27% | – | – | – | 168 nM | 2300 nM | > 10000 nM | 373 nM | >59.5 | >84.7 | –
O=C1c2ncccc2CCN1CCN1CCC(c2noc3cccc(F)c23)CC1 [Example 141] | 173 nM | 44% | – | – | – | 4.16 nM | 30 nM | > 10000 nM | 976 nM | >2405.7 | >57.8 | –
O=C1c2ncccc2CCN1CCN1CCC(c2noc3cc(F)c(F)cc23)CC1 [Example 148] | 43.2 nM | – | – | – | – | 156 nM | – | – | – | – | – | 45%
Cn1ccc2c1CCCN(CCN1CCN(c3nsc4ccccc34)CC1)C2=O [Example 165] | 1.2 nM | 44% | – | 0.265 mL/min/mg protein | 7900 nM | – | – | – | 15.4 nM | – | – | –
Cc1c2c(nn1C)CCN(CCN1CCN(c3noc4ccccc34)CC1)C2=O [Example 171] | 2.6 nM | 56% | – | <0.05 mL/min/mg protein | 6600 nM | – | – | – | 45.9 nM | – | – | –
Cc1ccc2c(n1)C(=O)N(CCN1CCC(c3noc4ccccc34)CC1)CC2 [Example 184] | 27 nM | 59% | – | <0.05 mL/min/mg protein | 800 nM | – | – | – | 95.5 nM | – | – | –
